Patent US6558954B1, “Phenotypic conversion of cells mediated by external guide sequences” (priority 1996, dated 2003)

System: bacterial species tested
Experiment: TMP-mediated delivery of EGS, overall statement for the bacterial species tested
Format: cell-based
Details: E. coli, P. aeruginosa, S. aureus, B. subtilis (FIG. 2)
Text: The results in Example 1 indicate enhanced delivery of a nucleic acid to the Gram negative organism E. coli. […] Staphylococcus aureus (Gram positive), Pseudomonas aeruginosa (Gram negative) and Bacillus subtilis (Gram positive) were obtained from the ATCC and grown overnight. The bacteria were washed with TB and resuspended to give an OD of 1.0. TMP/EGS complexes were set up as in Example 1 and delivered to the cells.
The cells were washed three times with TB and then treated with lysozyme solutions with EDTA (for Gram negative) or without EDTA (for Gram positive) according to the protocol of Merchant et al., J. Photochem. Photobiol. B: Biol. 32:153-157 (1996). The amount of EGS present in the cell pellet and the cell wall fraction was calculated following scintillation counting.

## C[n+]1ccc(-c2c3nc(c(-c4cc[n+](C)cc4)c4ccc([nH]4)c(-c4cc[n+](C)cc4)c4nc(c(-c5cc[n+](C)cc5)c5ccc2[nH]5)C=C4)C=C3)cc1 [TMP, tetra meso (n-methyl 4-pyridyl)porphine]
  ability of TMP to deliver EGS: able to deliver EGS to the bacterial species tested
